Test results: the supplement of paper PMC13380429
Structures can show the parent of a compound that is named as a salt.

Key:
Settings in all cases: 72 h
[1] = tested on: Calu-3; experiment: cell viability relative to DMSO; higher = less toxic
[2] = tested on: HepG2; experiment: as above
[3] = tested on: U2OS; experiment: as above
[4] = tested on: Caco-2; experiment: as above
[5] = tested on: Vero E6; experiment: as above
[6] = tested on: Calu-3; experiment: drug sensitivity score (DSS) for viability; higher = more toxic; extreme values may be limits of the assay
[7] = tested on: HepG2; experiment: as above
[8] = tested on: U2OS; experiment: as above
[9] = tested on: Caco-2; experiment: as above
[10] = tested on: Vero E6; experiment: as above
[11] = tested on: HepG2; experiment: relative viability EC50 (midpoint between 100% and the lowest measured viability); higher = less toxic
[12] = tested on: Caco-2; experiment: as above
[13] = tested on: Vero E6; experiment: as above
[14] = tested on: U2OS; experiment: as above

| Structure (SMILES) | cell viability ([1]; 1 nM) [%] | cell viability ([1]; 10 nM) [%] | cell viability ([1]; 100 nM) [%] | cell viability ([1]; 1000 nM) [%] | cell viability ([1]; 10000 nM) [%] | cell viability ([2]; 1 nM) [%] | cell viability ([2]; 10 nM) [%] | cell viability ([2]; 100 nM) [%] | cell viability ([2]; 1000 nM) [%] | cell viability ([2]; 10000 nM) [%] | cell viability ([3]; 1 nM) [%] | cell viability ([3]; 10 nM) [%] | cell viability ([3]; 100 nM) [%] | cell viability ([3]; 1000 nM) [%] | cell viability ([3]; 10000 nM) [%] | cell viability ([4]; 1 nM) [%] | cell viability ([4]; 10 nM) [%] | cell viability ([4]; 100 nM) [%] | cell viability ([4]; 1000 nM) [%] | cell viability ([4]; 10000 nM) [%] | cell viability ([5]; 1 nM) [%] | cell viability ([5]; 10 nM) [%] | cell viability ([5]; 100 nM) [%] | cell viability ([5]; 1000 nM) [%] | cell viability ([5]; 10000 nM) [%] | drug sensitivity score [6] | drug sensitivity score [7] | drug sensitivity score [8] | drug sensitivity score [9] | drug sensitivity score [10] | relative viability EC50 [11] [nM] | relative viability EC50 [12] [nM] | relative viability EC50 [13] [nM] | relative viability EC50 [14] [nM] |
| --- | --- | --- | --- | --- | --- | --- | --- | --- | --- | --- | --- | --- | --- | --- | --- | --- | --- | --- | --- | --- | --- | --- | --- | --- | --- | --- | --- | --- | --- | --- | --- | --- | --- | --- |
| N=c1ccn2c(n1)O[C@H]1[C@H](O)[C@@H](CO)O[C@H]12 [Cyclocytidine HCl] | 91.5 | 99.2 | 101 | 93 | 65.9 | 104 | 103 | 74.1 | 38 | 37.7 | 95.1 | 99.9 | 99.8 | 97.2 | 74.8 | 88.4 | 99.2 | 83.1 | 80.6 | 77.8 | 98.1 | 97.1 | 98.5 | 87.4 | 58.3 | 2.7 | 15 | 1.4 | 3.7 | 4 | 115 | > 10000 | – | – |
| Cc1c(C)c2c(c(C)c1OC(=O)CCC(=O)O)CC[C@@](C)(CCC[C@H](C)CCC[C@H](C)CCCC(C)C)O2 [D-alpha-tocopheryl-succinate] | – | – | – | – | – | 95.4 | 109 | 95.3 | 106 | 113 | – | – | – | – | – | 98.2 | 104 | 106 | 96.5 | 102 | 97.8 | 101 | 97.9 | 102 | 111 | – | 0 | – | 0 | 0 | > 10000 | > 10000 | > 10000 | – |
| COc1cc(OC)c(/C=C2/C(=O)Nc3ccccc32)c(OC)c1 [IC261] | 90.1 | 97 | 95.9 | 96.7 | 61.8 | 97.5 | 102 | 108 | 92.9 | 37.1 | 95 | 99.8 | 98.5 | 86 | 41.6 | 96.9 | 92.9 | 95.1 | 90.5 | 57.6 | 99 | 99.2 | 102 | 69.2 | 39.1 | 2.4 | 4.6 | 5.4 | 3.7 | 7.2 | 2240 | – | 991 | 1580 |
| NC[C@@H]1O[C@H](O[C@@H]2[C@@H](CO)OC(O[C@@H]3[C@@H](O)[C@H](N)C[C@H](N)[C@H]3OC3O[C@H](CN)[C@@H](O)[C@H](O)[C@H]3N)[C@@H]2O)[C@H](N)[C@@H](O)[C@@H]1O (stereo partly drawn) [NEOMYCIN TRISULFATE] | – | – | – | – | – | – | – | – | – | – | – | – | – | – | – | 96.6 | 103 | 96.3 | 91.7 | 97.3 | – | – | – | – | – | – | – | – | 0 | – | – | > 10000 | – | – |
